Earlier results in patent publication US6974588B1, “Transdermal patch for delivering volatile liquid drugs” (Elan Pharma International Limited, priority 1999, dated 2005).

Test system: nicotine dependence
Settings: oral administration, literature report

CNC1(C)C2CCC(C2)C1(C)C (stereo not shown) [oral mecamylamine, mecamylamine]
ad hoc cigarette consumption: increased
